The values below come from patent US20230203096A1, “EPHA4 TARGETING COMPOUNDS AND METHODS OF USE THEREOF” (priority 2020, published 2023).

Assay [1] has as its system mouse motor neurons co-cultured with iAstrocytes derived from sALS patients. The assay can be described thus: Co-culture of sALS patient derived iAstrocytes and motor neurons (motor neuron survival). To be noted: 100 μM. Type of assay: cell-based. The source says: EphA4 has been directly implicated in the progression of ALS in mice models and in human genetic studies. While the mechanisms for onset and progression of ALS remain largely undetermined, astrocytes have been implicated as significant contributors to motor neuron death in both in familial ALS (fALS), that is driven by inactivating mutations within the superoxide dismutase 1 (SOD1) gene and that account for less than 2% of all ALS cases, (Di Giorgio et al., Nat Neurosci, 10 (5): 608-614, (2007); Nagai et al., Nat Neurosci, 10 (5): 615-622, (2007); Yamanaka et al., Nat Neurosci, 11 (3): 251-253, (2008)) and the more common sporadic form of ALS (sALS). […] Recently, it was shown that astrocytes derived from both patient groups are similarly toxic to motor neurons (Haidet-Phillips et al., Nat Biotechnol, 29 (9): 824-828, (2011)).
Induced Astrocytes were generated by seeding a low quantity of NPCs into astrocyte medium (DMEM media containing 10% FBS and 0.2% N2) for five days. Following differentiation, iAstrocytes were lifted and seeded into a 96 well (10,000 cells per well).
Cells are sorted through a 100 micron tip with sheath pressure of 27. GFP+ motor neurons were seeded in a 96 well plate (10,000 cells per well). Co-cultures were imaged with InCell for up to three days. Motor neurons with neurite outgrowth of greater than 50 um were counted as alive.

For assay [2], the system named is SOD1(G93A) transgenic mice. The note with it: SOD1(G93A) models, literature; cited from earlier work.
Assay [3] concerns EphA4. To be noted: reported previously; cited from earlier work.
Assay [4] deals with T1, ^13C^ε-Met-labeled EphA4-LBD (Homo sapiens, UniProt P54764, C204A).
T1 construct: His tag (N); made in house; host or cells: E. coli Rosetta-Gami B(DE3), pET15b
T1 sequence (P54764 29-209 C204A): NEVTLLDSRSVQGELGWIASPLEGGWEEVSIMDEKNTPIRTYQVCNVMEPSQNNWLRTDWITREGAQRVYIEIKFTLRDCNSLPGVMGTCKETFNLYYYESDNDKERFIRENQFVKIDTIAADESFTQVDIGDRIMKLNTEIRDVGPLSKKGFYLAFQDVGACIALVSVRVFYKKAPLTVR
The assay can be described thus: 2D [13C,1H] HSQC NMR chemical shift perturbation of Met resonances. The note with it: test ligands at 40 μM, EphA4-LDB at 20 μM; Table 8. In kind it is binding. The method, then: Peptides were synthesized by using standard solid-phase synthesis protocol, using the BAL resin as anchoring for the C-terminal amines. Isothermal Titration Calorimetry (ITC) measurements were performed in a reverse fashion by titrating the protein into the ligand solution. Solution nuclear magnetic resonance (NMR) experiments were conducted on a 700 MHz Bruker Avance spectrometer equipped with a TCI cryoprobe. […]
2D [^13C,^1H] correlation NMR spectra measured with such protein targets, collected in absence or presence of test ligands can be used to monitor ligand binding and make, albeit qualitative, determinations on possible conformational changes induced by test ligands on the protein target. […] In targeting EphA4, an important aspect regarding the activity of its ligands is whether these agents could be predicted to work as antagonists or agonists.
NMR spectra were acquired on Bruker Avance III 700 MHz spectrometer equipped with a TCI cryoprobe. All NMR data were processed and analyzed using TOPSPIN 3.6.1 (Bruker, Billerica, Mass., USA).
Chemical shift changes (A) in the 2D [^13C, ^1H] spectra were calculated as weight average perturbations observed in the ^1H and ^13C dimensions using the following Equation: […]

As to `COc1ccc2[nH]cc(CCNC(=O)[C@H](Cc3ccncc3)NC(=O)[C@H](Cc3ccc(Cl)cc3)NC(=O)[C@H](Cc3c[nH]c4ccc(O)cc34)NC(=O)CCCN)c2c1` [Compound 123C4, reference compound], the “protection of motor neurons from sALS astrocytes-induced death” value in assay [1] is “to a lesser extent, 123C4 (at a higher concentration) were able to protect mouse motor neurons”. Besides, the “disease onset / survival” value in assay [2] was “significantly prolonged survival”. Besides, the “agonistic activity for EphA4 in primary cortical neurons” value in assay [3] was “induced receptor phosphorylation and growth cone collapse”. Moreover, in assay [4], the “Δδ Met 60” value was “+ (0< + <0.1 ppm)”, the “Δδ Met 115” value is given as “+ (0< + <0.1 ppm)” and the “Δδ Met 164” value is reported as “++ (0.1 ppm < ++ <0.2 ppm)”.
